Assay results as given in US20250109127A1, “METHODS OF USE OF PHENOXYPROPYLAMINE COMPOUNDS TO TREAT DEPRESSION” (Minerva Neurosciences, Inc., priority 2013, published 2025).
Values joined by “and” are separate entries in the source; they are usually repeats but may differ in a detail not shown here. Equal values may be shown once.

Test system: 5-HIAA release in the rat prefrontal cortex
Assay: Microdialysis: 5-HIAA release in prefrontal cortex after I.P. administration
Format: in vivo
Settings: for 5-HIAA in dialysate, MEAN / 5-HIAA in dialysate, individual animals: Citalopram 10 mg/kg I.P.
Description: The aim of the study was to evaluate, using microdialysis, the effects of an intraperitoneal (I.P.) administration in rats of three different doses of SON-117 on dopamine and its metabolites, serotonin and its metabolite (5-HIAA), and norepinephrine levels in prefrontal cortex.
Thirty-two adult male Wistar rats were used for the whole study (4 groups of eight animals planned for the study, Table 1).
Surgery was performed on rats weighing about 300 g at the beginning of the experiments. Rats were anaesthetized with Ketamine (50 mg/kg) & Xylazine (15 mg/kg) by intramuscular administration. The animals were placed in a stereotaxic apparatus in the flat-skull position at a constant setting of −3.3 mm between ear bars and the incisor bar. The animals were treated with a local anesthesic (xylocaine 1%, Astra Zeneca) and an analgesic (Temgesic, from Schering Plough, 0.05 mg/kg, s.c.). A rostrocaudal midline incision was made with a lancet to expose the dorsal skull surface. The “stereotaxic zero” was defined by the Bregma in accordance with Paxinos and Watson's atlas (1986). A hole was drilled in the skull with a drill and the meninges were pierced with a sterile needle to implant a CMA12 guide cannula which later received the dialysis probe.
Coordinates used for implanting guide cannula in prefrontal cortex from Bregma were anteroposterior 3.7 mm, mediolateral 0.8 mm, and dorsoventral −2 mm (top of the probe was at −5 mm). The guide cannula was fixed to the skull with two stainless steel screws (1.88 mm outside diameter) anchored. An application of dental cement was added. A plastic collar allowed each animal to be tethered to a Swivel assembly of the CMA 120 awake animal system. Following surgery, rats were kept in individual cages and allowed to recover for a minimum of 3-5 days before the experimentation. The rats were handled and put in plastic bowl for 10 min at least every day to habituate the animals to their new environment for the dialysis. An I.P. administration with saline was also performed every day.
Dialysis probes (CMA12/3 mm, membrane, 20 kD cut-off, Carnegie Medicine, Stockholm, Sweden), were carefully washed before inserting into the guide cannula. The wash was performed with the artificial cerebrospinal fluid (aCSF) medium (NaCl 147 mM, KCl 2.7 mM, CaCl2 1.2 mM, MgCl2 0.85 mM) at room temperature. The dialysis system was then equilibrated at 20° C. at a perfusion rate of 1 μl/min with a Carnegie pump (CMA100). All catheters (FEP tubing, internal volume of 1.2 μl/10 cm, and tubing adaptors) used for microdialysis were treated in the same conditions.
The probes duly prepared were inserted into the guide cannula and the CMA120 Swivel assembly secured to the animal using a plastic collar. Flow through the dialysis probe with aCSF was maintained at a rate of 1 μl/min during the whole experimentation. The first four fractions (corresponding to 2 hours) were discarded to avoid the effects of parenchymal disturbance and to ensure that an approximate steady-state level was reached. Fractions were then collected over a period of 8.5 h during which time the animals remained quiet. The dialysates were automatically collected with an autosampler (microfraction collector CMA 140, Carnegie Medicin) and stored at −80° C. until analysis. […] Perfusion was then maintained for 7 hours with aCSF. The dialysates (30 μl) were collected into 300 μl vials, transferred into dry ice and then kept frozen (−80° C.) until analysis. Frozen samples were shipped to a partner for analysis. At the end of the microdialysis study, a PBS with colored ink was perfused through the probe in order to visualize the dialyzed area.
Catecholamine assay: Concentrations of dopamine, DOPAC, HVA, 5-HIAA, 5-HT, and norepinephrin were determined for each sample by HPLC coupled with electrochemical detection.

CN(C)CCCC1(c2ccc(F)cc2)OCc2cc(C#N)ccc21 (stereo not drawn) [Citalopram, citalopram, reference compound]
5-HIAA in dialysate, MEAN (T30-T1 h): 112.98 % of respective basal | 5-HIAA in dialysate, individual animals (T30-T1 h): 108.67 % of respective basal and 107.01 % of respective basal and 121.99 % of respective basal and 141.67 % of respective basal and 110.50 % of respective basal and 102.40 % of respective basal and 95.39 % of respective basal and 116.20 % of respective basal | 5-HIAA in dialysate, MEAN (T1 h 30-T2 h): 89.03 % of respective basal | 5-HIAA in dialysate, individual animals (T1 h 30-T2 h): 79.21 % of respective basal and 80.54 % of respective basal and 115.42 % of respective basal and 91.93 % of respective basal and 89.59 % of respective basal and 74.91 % of respective basal and 97.01 % of respective basal and 83.65 % of respective basal | 5-HIAA in dialysate, MEAN (T1 h-T1 h 30): 101.94 % of respective basal | 5-HIAA in dialysate, individual animals (T1 h-T1 h 30): 100.18 % of respective basal and 85.46 % of respective basal and 131.13 % of respective basal and 121.97 % of respective basal and 98.30 % of respective basal and 88.97 % of respective basal and 88.75 % of respective basal and 100.76 % of respective basal | 5-HIAA in dialysate, MEAN (T2 h 30-T3 h): 72.04 % of respective basal | 5-HIAA in dialysate, individual animals (T2 h 30-T3 h): 51.39 % of respective basal and 53.65 % of respective basal and 94.55 % of respective basal and 76.96 % of respective basal and 86.07 % of respective basal and 61.11 % of respective basal and 78.96 % of respective basal and 73.66 % of respective basal | 5-HIAA in dialysate, MEAN (T2 h-T2 h 30): 82.39 % of respective basal | 5-HIAA in dialysate, individual animals (T2 h-T2 h 30): 86.10 % of respective basal and 66.06 % of respective basal and 115.98 % of respective basal and 81.96 % of respective basal and 87.60 % of respective basal and 62.15 % of respective basal and 79.47 % of respective basal and 79.79 % of respective basal | 5-HIAA in dialysate, MEAN (T3 h 30-T4 h): 74.61 % of respective basal | 5-HIAA in dialysate, individual animals (T3 h 30-T4 h): 73.28 % of respective basal and 61.52 % of respective basal and 99.49 % of respective basal and 73.39 % of respective basal and 75.64 % of respective basal and 59.18 % of respective basal and 77.94 % of respective basal and 76.45 % of respective basal | 5-HIAA in dialysate, MEAN (T3 h-T3 h 30): 73.07 % of respective basal | 5-HIAA in dialysate, individual animals (T3 h-T3 h 30): 74.34 % of respective basal and 48.79 % of respective basal and 107.40 % of respective basal and 68.89 % of respective basal and 77.21 % of respective basal and 56.57 % of respective basal and 77.95 % of respective basal and 73.43 % of respective basal | 5-HIAA in dialysate, MEAN (T4 h 30-T5 h): 71.07 % of respective basal | 5-HIAA in dialysate, individual animals (T4 h 30-T5 h): 75.13 % of respective basal and 59.79 % of respective basal and 90.52 % of respective basal and 59.71 % of respective basal and 66.71 % of respective basal and 59.77 % of respective basal and 77.37 % of respective basal and 79.55 % of respective basal | 5-HIAA in dialysate, MEAN (T4 h-T4 h 30): 73.18 % of respective basal | 5-HIAA in dialysate, individual animals (T4 h-T4 h 30): 72.77 % of respective basal and 52.24 % of respective basal and 97.15 % of respective basal and 67.66 % of respective basal and 75.69 % of respective basal and 64.72 % of respective basal and 80.07 % of respective basal and 75.12 % of respective basal | 5-HIAA in dialysate, MEAN (T5 h 30-T6 h): 68.38 % of respective basal | 5-HIAA in dialysate, individual animals (T5 h 30-T6 h): 55.76 % of respective basal and 56.52 % of respective basal and 86.58 % of respective basal and 66.99 % of respective basal and 65.74 % of respective basal and 68.20 % of respective basal and 71.48 % of respective basal and 75.45 % of respective basal | 5-HIAA in dialysate, MEAN (T5 h-T5 h 30): 69.50 % of respective basal | 5-HIAA in dialysate, individual animals (T5 h-T5 h 30): 50.96 % of respective basal and 91.09 % of respective basal and 61.61 % of respective basal and 64.79 % of respective basal and 60.00 % of respective basal and 84.10 % of respective basal and 73.94 % of respective basal | 5-HIAA in dialysate, MEAN (T6 h 30-T7 h): 67.44 % of respective basal | 5-HIAA in dialysate, individual animals (T6 h 30-T7 h): 61.13 % of respective basal and 52.63 % of respective basal and 87.81 % of respective basal and 64.43 % of respective basal and 57.20 % of respective basal | 5-HIAA in dialysate, MEAN (T6 h-T6 h 30): 63.81 % of respective basal | 5-HIAA in dialysate, individual animals (T6 h-T6 h 30): 60.01 % of respective basal and 53.66 % of respective basal and 90.97 % of respective basal and 62.02 % of respective basal and 55.94 % of respective basal and 67.93 % of respective basal and 47.86 % of respective basal and 72.09 % of respective basal | 5-HIAA in dialysate, MEAN (T-30 min-T0 (pre-dose)): 102.91 % of respective basal | 5-HIAA in dialysate, MEAN (T-1 h 30-T-1 h (pre-dose)): 97.47 % of respective basal | 5-HIAA in dialysate, MEAN (T-1 h-T-30 min (pre-dose)): 98.99 % of respective basal | 5-HIAA concentration in prefrontal cortex, significant slight increase (citalopram 10 mg/kg IP, at 0.5 h and 1 h): 113%
